Laboratory results published in patent US12077503B2, “Substituted cyclic amides and their use as herbicides” (FMC CORPORATION, priority 2015, dated 2024).

Legend:
Type in all cases: in vivo
[1] = test system: ducksalad (Heteranthera limosa); test: Test B flooded paddy test; settings: Flood, 500 g ai/ha; 0 to 100 scale where 0 is no effect and 100 is complete control; 13 to 15 d
Summary of the method: (§1)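 Response scored visually against untreated controls, 0 = no effect and 100 = complete control, 13–15 d after treatment in the greenhouse. Compounds added to paddy water held 3 cm above soil surface. Treatment given at 2-leaf stage.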

[2] = test system: barnyardgrass (Echinochloa crus-galli); test: Test B flooded paddy test; settings: Flood, 500 g ai/ha; 0 to 100 scale where 0 is no effect and 100 is complete control; 13 to 15 d
Summary of the method: as §1

[3] = test system: sedge, umbrella (small-flower umbrella sedge, Cyperus difformis); test: Test B flooded paddy test; settings: Flood, 500 g ai/ha; 0 to 100 scale where 0 is no effect and 100 is complete control; 13 to 15 d
Summary of the method: as §1

[4] = test system: rice (Oryra sativa); test: Test B flooded paddy test; settings: Flood, 500 g ai/ha; 0 to 100 scale where 0 is no effect and 100 is complete control; 13 to 15 d
Summary of the method: as §1

[5] = test system: ragweed (common ragweed, Ambrosia elatior); test: Test A preemergence; settings: preemergence
Summary of the method: (§2)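 Visual injury, scored on a 0–100 scale relative to untreated controls, was recorded about 10 d after application. Treatments were a preemergence soil spray over planted seeds or a postemergence spray on plants at the one- to two-leaf stage, 2 to 10 cm tall, all in loam soil–sand blend in the greenhouse.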

[6] = test system: pigweed (Amaranthus retroflexus); test: Test A preemergence; settings: preemergence
[7] = test system: Kochia (Kochia scoparia); test: Test A preemergence; settings: preemergence
Summary of the method: as §2

[8] = test system: barnyardgrass (Echinochloa crus-galli); test: Test A preemergence; settings: preemergence
Summary of the method: as §2

[9] = test system: giant foxtail (Setaria faberii); test: Test A preemergence; settings: preemergence
Summary of the method: as §2

[10] = test system: ryegrass, Italian (Italian ryegrass, Lolium multiflorum); test: Test A preemergence; settings: preemergence
Summary of the method: as §2

[11] = test system: Galium (catchweed bedstraw, Galium aparine); test: Test A postemergence; settings: postemergence, 0 to 100 scale (0 no effect, 100 complete control)
Summary of the method: as §2

[12] = test system: ragweed (common ragweed, Ambrosia elatior); test: Test A postemergence; settings: postemergence, 0 to 100 scale (0 no effect, 100 complete control)
Summary of the method: as §2

[13] = test system: corn (Zea mays); test: Test A postemergence; settings: postemergence, 0 to 100 scale (0 no effect, 100 complete control)
Summary of the method: as §2

[14] = test system: pigweed (Amaranthus retroflexus); test: Test A postemergence; settings: postemergence, 0 to 100 scale (0 no effect, 100 complete control)
Summary of the method: as §2

[15] = test system: blackgrass (Alopecurus myosuroides); test: Test A postemergence; settings: postemergence, 0 to 100 scale (0 no effect, 100 complete control)
Summary of the method: as §2

[16] = test system: Kochia (Kochia scoparia); test: Test A postemergence; settings: postemergence, 0 to 100 scale (0 no effect, 100 complete control)
Summary of the method: as §2

[17] = test system: barnyardgrass (Echinochloa crus-galli); test: Test A postemergence; settings: postemergence, 0 to 100 scale (0 no effect, 100 complete control)
Summary of the method: as §2

[18] = test system: giant foxtail (Setaria faberii); test: Test A postemergence; settings: postemergence, 0 to 100 scale (0 no effect, 100 complete control)
Summary of the method: as §2

[19] = test system: ryegrass, Italian (Italian ryegrass, Lolium multiflorum); test: Test A postemergence; settings: postemergence, 0 to 100 scale (0 no effect, 100 complete control)
Summary of the method: as §2

[20] = test system: wheat (Triticum aestivum); test: Test A postemergence; settings: postemergence, 0 to 100 scale (0 no effect, 100 complete control)
Summary of the method: as §2

[21] = 125 g ai/ha, visual rating after approx. 10 d, 0 to 100 scale where 0 is no effect and 100 is complete control
[22] = 500 g ai/ha, 0 to 100 scale, 0 = no effect, 100 = complete control
[23] = 125 g ai/ha, visual injury after approximately 10 d
[24] = 500 g ai/ha, visual injury, approx. 10 d

SMILES	Plant response rating, Ducksalad [1]	Plant response rating, Barnyardgrass [2]	Plant response rating, Sedge, Umbrella [3]	Plant response rating, Rice [4]	Plant response rating, Ragweed [5, 21]	Plant response rating, Ragweed [5, 22]	Plant response rating, Pigweed [6, 21]	Plant response rating, Pigweed [6, 22]	Plant response rating, Kochia [7, 21]	Plant response rating, Barnyardgrass [8, 21]	Plant response rating, Barnyardgrass [8, 22]	Plant response rating, Foxtail, Giant [9, 21]	Plant response rating, Foxtail, Giant [9, 22]	Plant response rating, Ryegrass, Italian [10, 21]	Plant response rating, Ryegrass, Italian [10, 22]	Plant response rating, Galium [11, 23]	Plant response rating, Galium [11, 24]	Plant response rating, Ragweed [12, 23]	Plant response rating, Ragweed [12, 24]	Plant response rating, Corn [13, 23]	further results
O=C1NCC(c2cccc(OC(F)(F)C(F)F)c2)C1C(=O)Nc1ccc(F)cc1F (racemic) [Compound 696]	90	75	0	35	0	40	20	30	40	80	90	90	90	30	60	50	70	20	40	40	Plant response rating, Kochia [7, 22]: 60; Plant response rating, Corn [13, 24]: 70; Plant response rating, Pigweed [14, 23]: 30; Plant response rating, Pigweed [14, 24]: 60; Plant response rating, Blackgrass [15, 23]: 30; Plant response rating, Blackgrass [15, 24]: 40; Plant response rating, Kochia [16, 23]: 30; Plant response rating, Kochia [16, 24]: 40; Plant response rating, Barnyardgrass [17, 23]: 80; Plant response rating, Barnyardgrass [17, 24]: 80; Plant response rating, Foxtail, Giant [18, 23]: 80; Plant response rating, Foxtail, Giant [18, 24]: 80; Plant response rating, Ryegrass, Italian [19, 23]: 30; Plant response rating, Ryegrass, Italian [19, 24]: 40; Plant response rating, Wheat [20, 23]: 30; Plant response rating, Wheat [20, 24]: 50
O=C1NCC(c2ccc(I)cc2)C1C(=O)Nc1ccccc1F (racemic) [Compound 702]	100	50	0	20	0	0	0	30	20	70	90	90	90	0	0	0	40	0	0	0	Plant response rating, Kochia [7, 22]: 20; Plant response rating, Corn [13, 24]: 0; Plant response rating, Pigweed [14, 23]: 0; Plant response rating, Pigweed [14, 24]: 0; Plant response rating, Blackgrass [15, 23]: 0; Plant response rating, Blackgrass [15, 24]: 0; Plant response rating, Kochia [16, 23]: 0; Plant response rating, Kochia [16, 24]: 0; Plant response rating, Barnyardgrass [17, 23]: 70; Plant response rating, Barnyardgrass [17, 24]: 70; Plant response rating, Foxtail, Giant [18, 23]: 30; Plant response rating, Foxtail, Giant [18, 24]: 80; Plant response rating, Ryegrass, Italian [19, 23]: 0; Plant response rating, Ryegrass, Italian [19, 24]: 0; Plant response rating, Wheat [20, 23]: 0; Plant response rating, Wheat [20, 24]: 0
O=C1NCC(c2ccc(I)cc2)C1C(=O)Nc1cccc(F)c1 (racemic) [Compound 703]	98	30	0	0	0	0	0	0	0	20	80	80	90	0	0	0	0	0	0	0	Plant response rating, Corn [13, 24]: 0; Plant response rating, Pigweed [14, 23]: 0; Plant response rating, Pigweed [14, 24]: 0; Plant response rating, Blackgrass [15, 23]: 0; Plant response rating, Blackgrass [15, 24]: 0; Plant response rating, Kochia [16, 23]: 0; Plant response rating, Kochia [16, 24]: 0; Plant response rating, Barnyardgrass [17, 23]: 60; Plant response rating, Barnyardgrass [17, 24]: 70; Plant response rating, Foxtail, Giant [18, 23]: 50; Plant response rating, Foxtail, Giant [18, 24]: 90; Plant response rating, Ryegrass, Italian [19, 23]: 0; Plant response rating, Ryegrass, Italian [19, 24]: 0; Plant response rating, Wheat [20, 23]: 0; Plant response rating, Wheat [20, 24]: 0
O=C1NCC(c2ccc(I)cc2)C1C(=O)Nc1ccccc1Cl (racemic) [Compound 704]	85	30	0	0	0	20	0	30	0	40	90	90	90	0	20	20	40	0	20	0	Plant response rating, Kochia [7, 22]: 30; Plant response rating, Corn [13, 24]: 0; Plant response rating, Pigweed [14, 23]: 0; Plant response rating, Pigweed [14, 24]: 20; Plant response rating, Blackgrass [15, 23]: 0; Plant response rating, Blackgrass [15, 24]: 30; Plant response rating, Kochia [16, 23]: 0; Plant response rating, Kochia [16, 24]: 20; Plant response rating, Barnyardgrass [17, 23]: 70; Plant response rating, Barnyardgrass [17, 24]: 90; Plant response rating, Foxtail, Giant [18, 23]: 70; Plant response rating, Foxtail, Giant [18, 24]: 90; Plant response rating, Ryegrass, Italian [19, 23]: 0; Plant response rating, Ryegrass, Italian [19, 24]: 20; Plant response rating, Wheat [20, 23]: 0; Plant response rating, Wheat [20, 24]: 0
O=C1NCC(c2cccc3ccccc23)C1C(=O)Nc1cccc(F)c1F (racemic) [Compound 711]	60	0	0	0	0	0	0	0	0	0	0	0	0	0	0	0	0	0	0	0	Plant response rating, Kochia [7, 22]: 0; Plant response rating, Corn [13, 24]: 0; Plant response rating, Pigweed [14, 23]: 0; Plant response rating, Pigweed [14, 24]: 0; Plant response rating, Blackgrass [15, 23]: 0; Plant response rating, Blackgrass [15, 24]: 0; Plant response rating, Kochia [16, 23]: 0; Plant response rating, Kochia [16, 24]: 0; Plant response rating, Barnyardgrass [17, 23]: 0; Plant response rating, Barnyardgrass [17, 24]: 0; Plant response rating, Foxtail, Giant [18, 23]: 0; Plant response rating, Foxtail, Giant [18, 24]: 0; Plant response rating, Ryegrass, Italian [19, 23]: 0; Plant response rating, Ryegrass, Italian [19, 24]: 0; Plant response rating, Wheat [20, 23]: 0; Plant response rating, Wheat [20, 24]: 0
